Patent US10016515B2, “DMA, a bis-benzimidazole, confers radioprotection to the intestine via Akt/NFκB dual pathway activation” (Jawaharlal Nehru University, priority 2016, dated 2018)
Like-named read-outs stand apart in the source and are kept apart here.

Columns and labels:
[1] = Tissue bio-distribution and tissue pharmacokinetics of DMA; assay type: in vivo, mouse; settings: for half-life / Tmax / concentration at 1 h / concentration at 2 h / concentration at 4 h / concentration at 6 h / concentration at 16 h / concentration at 24 h / Cmax: Balb/c, mouse; for half-life / Tmax / Cmax: 100 mg/kg oral dose
Experimental: Tissue samples were collected from the same mice from which blood samples were collected in both doses of DMA. Lung, liver, kidney, intestine, heart, spleen, brain were dissected and rinsed with phosphate buffer saline (PBS) and dried on blotting paper. 100 mg of tissue sample was homogenized for 20 s in chilled acetronitrile and water and further 700 μl chilled acetronitrile was added. The sample was centrifuged at 14000 rpm for 10 min and clear supernatant was collected for analysis on HPLC-MS/MS system.
A standard DMA calibration from 1-1000 ng/ml with internal standard (20 ng/ml) was quantified. Sample analysis was performed on positive ionization mode LC-MS/MS with multiple reactions monitoring (MRM, m/z Q1/Q3) of DMA (m/z 235.1/412.0, retention time (RT) 5.3 min) and internal standard (m/z 227.1/396.0, RT 6.5 min) (Agilent 6410 series). A gradient method was employed to analyze the plasma samples using mobile phase A (0.1% formic acid in water) and mobile phase B (methanol). The B % was set as 30 (0 min), 90 (10-14 min), 30 (14-24 min) with flow rate of 0.3 ml/min. An injection volume of 10 μl was used for analysis.
Peak tissue concentration (Cmax) of DMA and time to reach the Cmax (tmax) were read directly from the raw data by visual examination of mean tissue concentration-time profile. The tissue concentration-time data following oral dose were subjected to one-, two- and three-compartmental models using WinNonlin program (version 6.3; Certara Inc, Missouri, USA) to calculate the pharmacokinetic parameters. The pharmacokinetic models were compared according to maximal correlation between observed and predicted concentration, minimal sum of squared residuals, Akaike Information Criterion (AIC) and Schwarz Bayesian Criterion (SBC). However, the tissue concentration-time data following intravenous administration were subjected to non-compartmental approach.

[2] = system: Balb/c mice spleen; test: Endogenous spleen colony forming assay; assay type: in vivo, mouse
Experimental: Group 1, sham control (normal saline treated); Group 2, DMA treated (200 mg/kg bw); Group 3, radiation control (whole body exposure to 8Gy); Group 4, treated with DMA (200 mg/kg bw) prior to whole body exposure to 8Gy. Mice (6 animals each) were irradiated, 2 h post-administration of DMA. The mice were sacrificed on day 10 and spleens were removed, blotted free of blood, weighed and the spleen index was calculated [spleen index=(spleen weight/body weight)×100]. Subsequently spleens were fixed in Bouin's fixative for 15 min and the number of macroscopic spleen cell colonies was counted manually.

[3] = kidney, Oral 100 mg/kg, read-out: Tissue DMA concentration, Kidney
[4] = liver, iv, i.v. 50 mg/kg, read-out: Tissue DMA concentration, Liver
[5] = liver, Oral 100 mg/kg, read-out: Tissue DMA concentration, Liver
[6] = lung, iv, i.v. 50 mg/kg, read-out: Tissue DMA concentration, Lung
[7] = lung, Oral 100 mg/kg, read-out: Tissue DMA concentration, Lung
[8] = spleen, iv, i.v. 50 mg/kg, read-out: Tissue DMA concentration, Spleen
[9] = spleen, Oral 100 mg/kg, read-out: Tissue DMA concentration, Spleen

Compound: COc1ccc(-c2nc3cc(-c4nc5cc(N6CCN(C)CC6)ccc5[nH]4)ccc3[nH]2)cc1OC [DMA, 5-(4-methylpiperazin-1-yl)-2-[2′-(3,4-dimethoxyphenyl)-5′-benzimidazolyl]benzimidazole]
- half-life ([1]; kidney, read-out: Half life, Kidney (converted)): 2.5 h
- Tmax ([1]; kidney, read-out: Tmax, Kidney): 4 h
- concentration at 1 h ([1]; kidney, Oral 100 mg/kg, 1 h, read-out: Tissue DMA concentration, Kidney): 342 ng/g
- concentration at 2 h [1, 3]: 1020 ng/g
- concentration at 4 h ([1]; kidney, Oral 100 mg/kg, 4 h, read-out: Tissue DMA concentration, Kidney): 1530 ng/g
- concentration at 6 h ([1]; kidney, Oral 100 mg/kg, 6 h, read-out: Tissue DMA concentration, Kidney): 643 ng/g
- concentration at 16 h [1, 3]: 193 ng/g
- concentration at 1 h ([1]; liver, intravenous, 50 mg/kg i.v., read-out: Concentration achieved in liver): 41600 ng/g
- concentration at 1 h ([1]; liver, iv, i.v. 50 mg/kg, 1 h, read-out: Tissue DMA concentration, Liver): 41600 ng/g
- concentration at 2 h [1, 4]: 2000 ng/g
- concentration at 4 h ([1]; liver, iv, i.v. 50 mg/kg, 4 h, read-out: Tissue DMA concentration, Liver): 30100 ng/g
- concentration at 6 h ([1]; liver, iv, i.v. 50 mg/kg, 6 h, read-out: Tissue DMA concentration, Liver): 40100 ng/g
- concentration at 16 h [1, 4]: 22200 ng/g
- half-life ([1]; liver, read-out: Half life, Liver (converted)): 4 h
- Tmax ([1]; liver, read-out: Tmax, Liver): 4 h
- concentration at 1 h ([1]; liver, Oral 100 mg/kg, 1 h, read-out: Tissue DMA concentration, Liver): 161 ng/g
- concentration at 2 h [1, 5]: 415 ng/g
- concentration at 4 h ([1]; liver, Oral 100 mg/kg, 4 h, read-out: Tissue DMA concentration, Liver): 2230 ng/g
- concentration at 6 h ([1]; liver, Oral 100 mg/kg, 6 h, read-out: Tissue DMA concentration, Liver): 735 ng/g
- concentration at 16 h [1, 5]: 691 ng/g
- concentration at 24 h [1, 5]: 192 ng/g
- concentration at 1 h ([1]; lung, intravenous, 50 mg/kg i.v., read-out: Concentration achieved in lung): 109000 ng/g
- concentration at 1 h ([1]; lung, iv, i.v. 50 mg/kg, 1 h, read-out: Tissue DMA concentration, Lung): 109000 ng/g
- concentration at 2 h [1, 6]: 2340 ng/g
- concentration at 4 h ([1]; lung, iv, i.v. 50 mg/kg, 4 h, read-out: Tissue DMA concentration, Lung): 1770 ng/g
- concentration at 6 h ([1]; lung, iv, i.v. 50 mg/kg, 6 h, read-out: Tissue DMA concentration, Lung): 1340 ng/g
- concentration at 16 h [1, 6]: 993 ng/g
- concentration at 24 h [1, 6]: 730 ng/g
- concentration at 4 h ([1]; lung, 100 mg/kg oral, at 4 h, read-out: Concentration reached in lung): 1000 ng/g
- concentration at 1 h ([1]; lung, Oral 100 mg/kg, 1 h, read-out: Tissue DMA concentration, Lung): 211 ng/g
- concentration at 2 h [1, 7]: 436 ng/g
- concentration at 4 h ([1]; lung, Oral 100 mg/kg, 4 h, read-out: Tissue DMA concentration, Lung): 1000 ng/g
- concentration at 6 h ([1]; lung, Oral 100 mg/kg, 6 h, read-out: Tissue DMA concentration, Lung): 538 ng/g
- concentration at 16 h [1, 7]: 188 ng/g
- Cmax ([1]; small intestine, read-out: Cmax, Small Intestine): 106000 ng/g
- half-life ([1]; small intestine, read-out: Half life, Small Intestine (converted)): 1.9 h
- Tmax ([1]; small intestine, read-out: Tmax, Small Intestine): 2 h
- concentration at 6 h ([1]; spleen, intravenous, 50 mg/kg i.v., read-out: Concentration achieved in spleen): 12100 ng/g
- concentration at 1 h ([1]; spleen, iv, i.v. 50 mg/kg, 1 h, read-out: Tissue DMA concentration, Spleen): 6970 ng/g
- concentration at 2 h [1, 8]: 6450 ng/g
- concentration at 4 h ([1]; spleen, iv, i.v. 50 mg/kg, 4 h, read-out: Tissue DMA concentration, Spleen): 2090 ng/g
- concentration at 6 h ([1]; spleen, iv, i.v. 50 mg/kg, 6 h, read-out: Tissue DMA concentration, Spleen): 12100 ng/g
- concentration at 16 h [1, 8]: 9600 ng/g
- concentration at 1 h ([1]; spleen, 50 mg/kg intravenous, read-out: C1 hr, Spleen): 6970 ng/g
- Cmax ([1]; spleen, read-out: Cmax, Spleen): 1310 ng/g
- half-life ([1]; spleen, read-out: Half life, Spleen (converted)): 4.2 h
- Tmax ([1]; spleen, read-out: Tmax, Spleen): 2 h
- concentration at 1 h ([1]; spleen, Oral 100 mg/kg, 1 h, read-out: Tissue DMA concentration, Spleen): 401 ng/g
- concentration at 2 h [1, 9]: 1310 ng/g
- concentration at 4 h ([1]; spleen, Oral 100 mg/kg, 4 h, read-out: Tissue DMA concentration, Spleen): 681 ng/g
- concentration at 6 h ([1]; spleen, Oral 100 mg/kg, 6 h, read-out: Tissue DMA concentration, Spleen): 558 ng/g
- concentration at 16 h [1, 9]: 254 ng/g
- Tissue DMA concentration, Intestine ([1]; i.v. 50 mg/kg, 1 h): 1260000 ng/g of tissue
- Tissue accumulation ([1]; oral and i.v.): preferential accumulation in small intestine
- Spleen index ([2]; 200 mg/kg oral before 8Gy, day 10): 0.33±0.02
- Spleen index ([2]; DMA treatment only, 200 mg/kg): 0.41±0.05
- Endogenous colony forming units ([2]; DMA+Radiation, 10th day post-irradiation): 11.25±1.7
